Source: the supplement of paper PMC9013687
± gives the standard deviation of the averaged measurements.

Key:
Danio rerio embryo [1] = test: EC50 Curvature_Increase; details: exposure time: 2 dpf
Description: (§1)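 Zebrafish embryos (UFZ-OBI strain) were exposed from 2 hpf for 48 h (2 dpf) or 96 h (4 dpf) at 28 °C; spontaneous tail coiling was scored at 25 hpf. Morphological features from automated image analysis (FishInspector), heart rate and locomotor response were fitted with drc models. Quantal endpoints were dichotomised at 2.5 SD from controls and fitted with a log-logistic model; heart rate, pigmentation and STC were normalised to the replicate control mean. Betamethasone was tested as betamethasone dipropionate, diflorasone as diflorasone diacetate.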

Danio rerio embryo [2] = test: EC20 LMR dark; higher = less potent; details: exposure time: 4 dpf
Description: as §1

Danio rerio embryo [3] = test: EC10 Eye-jaw distance_Decrease; higher = less potent; details: exposure time: 4 dpf
Description: as §1

Danio rerio embryo [4] = test: EC20 Eye-jaw distance_Decrease; higher = less potent; details: exposure time: 4 dpf
Description: as §1

Danio rerio embryo [5] = details: exposure time: 4 dpf
Description: as §1

Danio rerio embryo [6] = test: EC10 Otolith-eye distance_Decrease; higher = less potent; details: exposure time: 4 dpf
Description: as §1

Danio rerio embryo [7] = system: Danio rerio embryo
Description: as §1

Danio rerio embryo [8] = test: EC20 Body length_Decrease; higher = less potent
Description: as §1

Danio rerio embryo [9] = test: EC20 Bladder size_Decrease; higher = less potent; details: exposure time: 4 dpf
Description: as §1

Danio rerio embryo [10] = test: EC50 Eye size_Decrease
Description: as §1

Danio rerio embryo [11] = test: EC10 Bladder size_Decrease; higher = less potent; details: exposure time: 4 dpf
Description: as §1

Danio rerio embryo [12] = test: EC20 Curvature_Increase; higher = less potent; details: exposure time: 2 dpf
Description: as §1

Danio rerio embryo [13] = test: EC50 Eye-jaw distance_Decrease; details: exposure time: 4 dpf
Description: as §1

Danio rerio embryo [14] = test: EC10 LMR dark; higher = less potent; details: exposure time: 4 dpf
Description: as §1

Danio rerio embryo [15] = test: EC50 Otolith-eye distance_Decrease; details: exposure time: 4 dpf
Description: as §1

Danio rerio embryo [16] = test: EC10 Curvature_Increase; higher = less potent; details: exposure time: 2 dpf
Description: as §1

Danio rerio embryo [17] = test: EC50 Yolk sac size_Increase; details: exposure time: 4 dpf
Description: as §1

Danio rerio embryo [18] = test: EC20 Otolith-eye distance_Decrease; higher = less potent; details: exposure time: 4 dpf
Description: as §1

Danio rerio embryo [19] = test: EC20 Pericard size_Increase; higher = less potent; details: exposure time: 4 dpf
Description: as §1

Danio rerio embryo [20] = test: EC50 Bladder size_Decrease; details: exposure time: 4 dpf
Description: as §1

Danio rerio embryo [21] = test: EC10 Body length_Decrease; higher = less potent
Description: as §1

Danio rerio embryo [22] = test: EC20 Any effect; higher = less potent
Description: as §1

Danio rerio embryo [23] = test: EC50 Pericard size_Increase; details: exposure time: 4 dpf
Description: as §1

Danio rerio embryo [24] = test: EC10 Pericard size_Increase; higher = less potent; details: exposure time: 4 dpf
Description: as §1

Danio rerio embryo [25] = test: EC10 Yolk sac size_Increase; higher = less potent; details: exposure time: 4 dpf
Description: as §1

Danio rerio embryo [26] = test: EC50 Body length_Decrease
Description: as §1

Danio rerio embryo [27] = test: EC20 Yolk sac size_Increase; higher = less potent; details: exposure time: 4 dpf
Description: as §1

Danio rerio embryo [28] = test: EC50 Head trunk angle_Decrease; details: exposure time: 2 dpf
Description: as §1

Danio rerio embryo [29] = test: spontaneous tail coiling frequency (coils/min/embryo); higher = more spontaneous movement; details: 25 hpf
Description: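 Spontaneous tail coilings of zebrafish embryos exposed from 2 hpf were recorded at 24-25 hpf in 1-min videos and detected by a KNIME workflow from grey-value variance. Betamethasone was tested as the dipropionate, diflorasone as the diacetate.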

Danio rerio embryo [30] = test: EC10 Any effect; higher = less potent
Description: as §1

CCOC(=O)N1CCC(=C2c3ccc(Cl)cc3CCc3cccnc32)CC1 [Loratadine]
Details | EC10 Bladder size Decrease [µM] | EC10 Curvature Increase [µM] | EC10 Eye-jaw distance Decrease [µM] | EC10 LMR dark [µM] | EC10 Otolith-eye distance Decrease [µM] | EC10 Pericard size Increase [µM] | EC10 Yolk sac size Increase [µM] | EC20 Bladder size Decrease [µM] | EC20 Curvature Increase [µM] | EC20 Eye-jaw distance Decrease [µM] | EC20 LMR dark [µM] | EC20 Otolith-eye distance Decrease [µM] | EC20 Pericard size Increase [µM] | EC20 Yolk sac size Increase [µM] | EC50 Bladder size Decrease [µM] | EC50 Curvature Increase [µM] | EC50 Eye-jaw distance Decrease [µM] | EC50 Head trunk angle Decrease [µM] | EC50 LMR dark [µM] | EC50 Otolith-eye distance Decrease [µM] | EC50 Pericard size Increase [µM] | EC50 Yolk sac size Increase [µM]
Danio rerio embryo [1] | – | – | – | – | – | – | – | – | – | – | – | – | – | – | – | 6.62 | – | – | – | – | – | –
Danio rerio embryo [2] | – | – | – | – | – | – | – | – | – | – | 0.318 | – | – | – | – | – | – | – | – | – | – | –
Danio rerio embryo [3] | – | – | 5.07 | – | – | – | – | – | – | – | – | – | – | – | – | – | – | – | – | – | – | –
Danio rerio embryo [4] | – | – | – | – | – | – | – | – | – | 5.67 | – | – | – | – | – | – | – | – | – | – | – | –
Danio rerio embryo [5] | – | – | – | – | – | – | – | – | – | – | – | – | – | – | – | – | – | – | 0.399 | – | – | –
Danio rerio embryo [6] | – | – | – | – | 4.17 | – | – | – | – | – | – | – | – | – | – | – | – | – | – | – | – | –
Danio rerio embryo [9] | – | – | – | – | – | – | – | 0.201 | – | – | – | – | – | – | – | – | – | – | – | – | – | –
Danio rerio embryo [11] | 0.165 | – | – | – | – | – | – | – | – | – | – | – | – | – | – | – | – | – | – | – | – | –
Danio rerio embryo [12] | – | – | – | – | – | – | – | – | 4.48 | – | – | – | – | – | – | – | – | – | – | – | – | –
Danio rerio embryo [13] | – | – | – | – | – | – | – | – | – | – | – | – | – | – | – | – | 6.86 | – | – | – | – | –
Danio rerio embryo [14] | – | – | – | 0.279 | – | – | – | – | – | – | – | – | – | – | – | – | – | – | – | – | – | –
Danio rerio embryo [15] | – | – | – | – | – | – | – | – | – | – | – | – | – | – | – | – | – | – | – | 5.49 | – | –
Danio rerio embryo [16] | – | 3.56 | – | – | – | – | – | – | – | – | – | – | – | – | – | – | – | – | – | – | – | –
Danio rerio embryo [17] | – | – | – | – | – | – | – | – | – | – | – | – | – | – | – | – | – | – | – | – | – | 11.6
Danio rerio embryo [18] | – | – | – | – | – | – | – | – | – | – | – | 4.62 | – | – | – | – | – | – | – | – | – | –
Danio rerio embryo [19] | – | – | – | – | – | – | – | – | – | – | – | – | 4.72 | – | – | – | – | – | – | – | – | –
Danio rerio embryo [20] | – | – | – | – | – | – | – | – | – | – | – | – | – | – | 0.282 | – | – | – | – | – | – | –
Danio rerio embryo [23] | – | – | – | – | – | – | – | – | – | – | – | – | – | – | – | – | – | – | – | – | 10.2 | –
Danio rerio embryo [24] | – | – | – | – | – | 3.01 | – | – | – | – | – | – | – | – | – | – | – | – | – | – | – | –
Danio rerio embryo [25] | – | – | – | – | – | – | 4.91 | – | – | – | – | – | – | – | – | – | – | – | – | – | – | –
Danio rerio embryo [27] | – | – | – | – | – | – | – | – | – | – | – | – | – | 6.74 | – | – | – | – | – | – | – | –
Danio rerio embryo [28] | – | – | – | – | – | – | – | – | – | – | – | – | – | – | – | – | – | 7.05 | – | – | – | –

Details | EC10 Any effect [µM] | EC10 Body length Decrease [µM] | EC20 Any effect [µM] | EC20 Body length Decrease [µM] | EC50 Any effect [µM] | EC50 Body length Decrease [µM] | EC50 Eye size Decrease [µM] | EC50 STC decrease [µM] | spontaneous tail coiling frequency
Danio rerio embryo [7], exposure time: 2 dpf | – | – | – | – | 6.4 | – | – | – | –
Danio rerio embryo [7], exposure time: 4 dpf | – | – | – | – | 0.438 | – | – | – | –
Danio rerio embryo [7], exposure time: 25 h | – | – | – | – | – | – | – | 6.63 | –
Danio rerio embryo [8], exposure time: 2 dpf | – | – | – | 6 | – | – | – | – | –
Danio rerio embryo [8], exposure time: 4 dpf | – | – | – | 0.404 | – | – | – | – | –
Danio rerio embryo [10], exposure time: 2 dpf | – | – | – | – | – | – | 8.45 | – | –
Danio rerio embryo [10], exposure time: 4 dpf | – | – | – | – | – | – | 6.82 | – | –
Danio rerio embryo [21], exposure time: 2 dpf | – | 5.13 | – | – | – | – | – | – | –
Danio rerio embryo [21], exposure time: 4 dpf | – | 0.383 | – | – | – | – | – | – | –
Danio rerio embryo [22], exposure time: 2 dpf | – | – | 5.01 | – | – | – | – | – | –
Danio rerio embryo [22], exposure time: 4 dpf | – | – | 0.398 | – | – | – | – | – | –
Danio rerio embryo [26], exposure time: 2 dpf | – | – | – | – | – | 7.83 | – | – | –
Danio rerio embryo [26], exposure time: 4 dpf | – | – | – | – | – | 0.442 | – | – | –
Danio rerio embryo [29], 0.155 µM | – | – | – | – | – | – | – | – | 2.97
Danio rerio embryo [29], 0.31 µM | – | – | – | – | – | – | – | – | 1.28
Danio rerio embryo [29], 0.61 µM | – | – | – | – | – | – | – | – | 1.66
Danio rerio embryo [29], 1.22 µM | – | – | – | – | – | – | – | – | 1.82 ± 0.75
Danio rerio embryo [29], 2.45 µM | – | – | – | – | – | – | – | – | 2.58 ± 0.62
Danio rerio embryo [29], 4.9 µM | – | – | – | – | – | – | – | – | 1.79 ± 0.028
Danio rerio embryo [29], 9.79 µM | – | – | – | – | – | – | – | – | 0.505 ± 0.32
Danio rerio embryo [30], exposure time: 2 dpf | 4.34 | – | – | – | – | – | – | – | –
Danio rerio embryo [30], exposure time: 4 dpf | 0.376 | – | – | – | – | – | – | – | –
